From patent US20250326757A1, “SOLID FORMS OF HETEROCYCLYLAMIDES AS IRAK4 INHIBITORS” (AstraZeneca AB, priority 2022, published 2025)

How the values were obtained:
[1] = assay type: physicochemical
Procedure: Amorphous Compound (I) (20 mg) was suspended in 2-propanol (800 μL) and stirred at room temperature for 2 weeks. The resultant solid was collected by filtration.

[2] = assay type: physicochemical; details: 70° C., low (11%) and high (75%) relative humidity, 21 days
Procedure: The physical and chemical stability of N-(Imidazo[1,2-b]pyridazin-3-yl)-6-methoxy-2-((1r,4r)-4-(N-methylacetamido)cyclohexyl)-2H-indazole-5-carboxamide Form A was further assessed under stressed conditions (elevated temperature (70° C.) at low (11%) and high (75%) relative humidity) over a period of 21 days according to standard protocols. Briefly, samples of Form A material were weighed into sample vials, the sample vials were placed in separate jars each containing a MadgeTech temperature and humidity logger and, in a separate vial, a saturated solution of either lithium chloride (to give 11% relative humidity) or sodium chloride (to give 75% relative humidity). The two jars (low/high humidity) were then sealed and placed in a calibrated oven at a temperature of 70° C. for a period of 21 days. Control samples were maintained in sealed vials in a refrigerator for the duration of the study.
Furthermore, XRPD confirmed that the physical form of the material over the course of the study was unchanged. It could thus be concluded that no chemical degradation of the samples or change in their physical form occurred on storage under stressed conditions. Accordingly, the suitability of N-(Imidazo[1,2-b]pyridazin-3-yl)-6-methoxy-2-((1r,4r)-4-(N-methylacetamido)cyclohexyl)-2H-indazole-5-carboxamide Form A for further development in pharmaceutical formulations was established.

COc1cc2nn([C@H]3CC[C@H](N(C)C(C)=O)CC3)cc2cc1C(=O)Nc1cnc2cccnn12 [Form A, N-(Imidazo[1,2-b]pyridazin-3-yl)-6-methoxy-2-((1r,4r)-4-(N-methylacetamido)cyclohexyl)-2H-indazole-5-carboxamide Form A]
Stability to prolonged storage under accelerated ageing conditions [1]: stable
Physical form by XRPD over the course of the study [2]: unchanged
